For 17 molecules, IC50 results are on record in patent US12024531B2, “Immunoproteasome inhibitors” (Principia Biopharma Inc., priority 2017, dated 2024).

The target of assay [1] is PBMC LMP2 (Homo sapiens, UniProt P28065). Description: Inhibition of proteasome activity in cells (Proteasome-Glo), PBMC/LMP2. Format: cell-based. The settings on record: 2 h incubation at 37° C. The procedure: (§1) The cell-based effects of a compound described herein on the immunoproteasome were determined by measuring inhibition of proteasome activity in cells using the Proteasome-Glo™ Cell-Based Reagent (Promega, Madison WI). The Proteasome-Glo™ assay contains a specific luminogenic proteasome substrate in a buffer optimized for cell permeabilization, proteasome activity, and luciferase activity. For the chymotrypsin-like activity (LMP7 and 05c), the peptide substrate is Suc-LLVY-aminoluciferin (Succinyl-leucine-leucine-valine-tyrosine-aminoluciferin). Cleavage of the substrate by proteasome results in luminescent signal which is proportional to the proteasome activity. The cell line THP-1 (a monocytic leukemia cell line enriched in immunoproteasome), the cell line HT-29 (a colorectal adenocarcinoma cell line enriched in constitutive proteasome), and primary human peripheral blood mononuclear cells (PBMC) were used to assess proteasome activity. Cells were seeded in a 96-well plate at 10,000 cells per well in RPMI 1640 high glucose medium with 10% fetal bovine serum (FBS). Compound dilutions were added to cells starting at a concentration of 5 uM and decreasing in tripling dilutions. The final DMSO concentration was 1%. The concentration range was adjusted as needed for compounds of different potencies. The cells treated with compounds were incubated for 2 h at 37° C. in 5% CO2. At the end of the 2 hour incubation period, cells were transferred to white 384 well assay plates. 20 uL of Proteasome-Glo™ Reagent was added to each well and incubated for 10 minutes at rt. The plate was read in the Analyst HT instrument (Molecular Devices, Sunnyvale, CA) using luminescence mode. The percent inhibition of activity was plotted as a function of log compound concentration. The IC50 was then calculated for each compound using Prism software from GraphPad Software Inc. (San Diego, CA).

Assay [2] has as its target constitutive proteasome β5c subunit (Homo sapiens, UniProt P28074). The assay is described as follows: Caliper-based proteasome enzymatic activity assay, β5c. In kind it is biochemical. The settings on record: human recombinant constitutive proteasome 0.3 nM, FAM peptide substrate 1 μM, rt 3 h.
Assay [3] addresses immunoproteasome LMP2 subunit (Homo sapiens, UniProt P28065). Description: Caliper-based proteasome enzymatic activity assay, LMP2. Format: biochemical. The note with it: human recombinant immunoproteasome 0.3 nM, FAM peptide substrate 1 μM, rt 2 h.
The target in assay [4] is immunoproteasome LMP7/B5i subunit (Homo sapiens, UniProt P28062). The assay is described as follows: Caliper-based proteasome enzymatic activity assay, LMP7. The note with it: human recombinant immunoproteasome 0.3 nM, FAM peptide substrate 1 μM, rt 3 h. Format: biochemical.
For assay [5], the target named is PBMC LMP7 (Homo sapiens, UniProt P28062). Description: Inhibition of proteasome activity in cells (Proteasome-Glo), PBMC/LMP7. Format: cell-based. The settings on record: 2 h incubation at 37° C. The procedure: as §1

Structures are written as SMILES. Some results are limits rather than exact numbers.

One may read the IC50 as the concentration that gives 50% inhibition. Consider `N#CC(=Cc1cccc(OCCC(=O)N[C@@H](Cc2ccccc2)B(O)O)c1)c1ccccn1` [Example 6, (R)-(1-(3-(3-(2-cyano-2-(pyridin-2-yl)vinyl)phenoxy)propanamido)-2-phenylethyl)boronic Acid], for which the IC50 is over 5 µM in assay [1]; 89 nM in assay [2]; 0.084 µM in assay [3]; 8 nM in assay [4]; 7 nM in assay [5].
On to `CC(C)(C)NC(=O)C(C#N)=Cc1cccc(OCCC(=O)N[C@@H](CCc2ccccc2)B(O)O)c1` [Example 11, (R)-1-(3-(3-(3-(tert-butylamino)-2-cyano-3-oxoprop-1-enyl)phenoxy)propanamido)-3-phenylpropylboronic Acid], for which the concentration for half-maximal inhibition (IC50) in assay [1] is over 5 µM; in assay [2] it was 310 nM; in assay [3] it was over 5 µM; in assay [4] it was 2 nM; in assay [5], 3 nM.
For `N#CC(=Cc1cccc(OCCC(=O)N[C@@H](CCc2ccccc2)B(O)O)c1)c1ccccn1` [Example 21, (R)-(1-(3-(3-(2-cyano-2-(pyridin-2-yl)vinyl)phenoxy)propanamido)-3-phenylpropyl)boronic Acid], the IC50 in assay [2] is 260 nM; in assay [3], over 5 µM; in assay [4] it was 27 nM; in assay [5], 8 nM.
For `N#CC(=Cc1cccc(CCOC(=O)N[C@@H](Cc2coc3ccccc23)B(O)O)c1)c1ccccn1` [Example 35, (R)-(2-(benzofuran-3-yl)-1-(((3-(2-cyano-2-(pyridin-2-yl)vinyl)phenethoxy)carbonyl)amino)ethyl)boronic Acid], the IC50 in assay [2] was 66 nM; in assay [3], over 5 µM; in assay [4], 2 nM; in assay [5] it was 3 nM.
For `Cc1ccc(C[C@H](NC(=O)OCCc2cccc(C=C(C#N)C(=O)N(C)C)c2)B(O)O)cc1` [Example 50, (R)-(1-(((3-(2-cyano-3-(dimethylamino)-3-oxoprop-1-en-1-yl)phenethoxy)carbonyl)amino)-2-(p-tolyl)ethyl)boronic Acid], the half-inhibitory concentration (IC50) is 1090 nM in assay [2], over 5 µM in assay [3], 1.5 nM in assay [4] and 4 nM in assay [5].
For `CCN(CC)C(=O)C(C#N)=Cc1cccc(CCOC(=O)N[C@@H](Cc2ccccc2)B(O)O)c1` [Example 52, (R)-(1-(((3-(2-cyano-3-(diethylamino)-3-oxoprop-1-en-1-yl)phenethoxy)carbonyl)amino)-2-phenylethyl)boronic Acid] the same measures were over 5000 nM, over 5 µM, 10.3 nM and 44 nM.
On the same counts, the results for `N#CC(=Cc1cccc(CCOC(=O)N[C@@H](Cc2ccccc2)B(O)O)c1)c1ncccc1F` [Example 54, (R)-(1-(((3-(2-cyano-2-(3-fluoropyridin-2-yl)vinyl)phenethoxy)carbonyl)amino)-2-phenylethyl)boronic Acid] are 610 nM, over 5 µM, 3.3 nM and 4 nM.
With `CCN(CC)C(=O)C(C#N)=Cc1cccc(CCOC(=O)N[C@@H](Cc2ccc(C)cc2)B(O)O)c1` [Example 55, (R)-(1-(((3-(2-cyano-3-(diethylamino)-3-oxoprop-1-en-1-yl)phenethoxy)carbonyl)amino)-2-(p-tolyl)ethyl)boronic Acid], the IC50 is 1180 nM in assay [2], over 5 µM in assay [3], 2 nM in assay [4] and 4 nM in assay [5].
For `CCN(CC)C(=O)C(C#N)=Cc1cccc(CCOC(=O)N[C@@H](Cc2coc3ccccc23)B(O)O)c1` [Example 58, (R)-(2-(benzofuran-3-yl)-1-(((3-(2-cyano-3-(diethylamino)-3-oxoprop-1-en-1-yl)phenethoxy)carbonyl)amino)ethyl)boronic Acid] the same measures were 255 nM, over 5 µM, 1.7 nM and 12 nM.
For `N#CC(=Cc1cccc(CCOC(=O)N[C@@H](Cc2ccccc2)B(O)O)c1)c1ncccn1` [Example 60, (R)-(1-(((3-(2-cyano-2-(pyrimidin-2-yl)vinyl)phenethoxy)carbonyl)amino)-2-phenylethyl)boronic Acid] the same measures were 167 nM, 1.02 µM, 1.1 nM and 2 nM.
As for `N#CC(=Cc1cccc(CCOC(=O)N[C@@H](Cc2ccccc2)B(O)O)c1)C(=O)N1C2CCC1COC2` [Example 67, ((1R)-1-(((3-(3-(3-oxa-8-azabicyclo[3.2.1]octan-8-yl)-2-cyano-3-oxoprop-1-en-1-yl)phenethoxy)carbonyl)amino)-2-phenylethyl)boronic Acid], the IC50 in assay [2] was over 5000 nM; in assay [3] it was 2.32 µM; in assay [4], 0.4 nM; in assay [5], 2 nM.
On the same counts, the results for `CCN(C(=O)C(C#N)=Cc1cccc(CCOC(=O)N[C@@H](Cc2ccccc2)B(O)O)c1)C1CCOCC1` [Example 70, (R)-(1-(((3-(2-cyano-3-(ethyl(tetrahydro-2H-pyran-4-yl)amino)-3-oxoprop-1-en-1-yl)phenethoxy)carbonyl)amino)-2-phenylethyl)boronic Acid] are over 5000 nM, 4.25 µM, 0.6 nM and 2 nM.
Regarding `CN(CC(F)(F)F)C(=O)C(C#N)=Cc1cccc(CCOC(=O)N[C@@H](Cc2ccccc2)B(O)O)c1` [Example 91, (R)-(1-(((3-(2-cyano-3-(methyl(2,2,2-trifluoroethyl)amino)-3-oxoprop-1-en-1-yl)phenethoxy)carbonyl)amino)-2-phenylethyl)boronic Acid], the 50% inhibitory concentration (IC50) in assay [2] was 3840 nM; in assay [3], over 5 µM; in assay [4], 2.3 nM.
For `Cc1ccc(C[C@H](NC(=O)OCCc2cccc(C=C(C#N)C(=O)N3[C@@H](C)COC[C@@H]3C)c2)B(O)O)cc1` [Example 92, ((R)-1-(((3-(2-cyano-3-((3S,5S)-3,5-dimethylmorpholino)-3-oxoprop-1-en-1-yl)phenethoxy)carbonyl)amino)-2-(p-tolyl)ethyl)boronic Acid] the same measures were 532 nM, over 5 µM and 0.6 nM.
On the same counts, the results for `CC1(C)COCCN1C(=O)C(C#N)=Cc1cccc(CCOC(=O)N[C@@H](Cc2coc3ccccc23)B(O)O)c1` [Example 93, (R)-(2-(benzofuran-3-yl)-1-(((3-(2-cyano-3-(3,3-dimethylmorpholino)-3-oxoprop-1-en-1-yl)phenethoxy)carbonyl)amino)ethyl)boronic Acid] are 45 nM, over 5 µM and 1.1 nM.
For `N#CC(=Cc1cccc(CCNC(=O)N[C@@H](Cc2coc3ccccc23)B(O)O)c1)c1ncccn1` [Example 94, (R)-(2-(benzofuran-3-yl)-1-(3-(3-(2-cyano-2-(pyrimidin-2-yl)vinyl)phenethyl)ureido)ethyl)boronic Acid], the half-inhibitory concentration (IC50) in assay [2] was 15 nM; in assay [3], over 5 µM; in assay [4], 2.2 nM.
On the same counts, the results for `CCN(CC)C(=O)C(C#N)=Cc1cc(C#N)cc(CCOC(=O)N[C@@H](Cc2ccc(C)cc2)B(O)O)c1` [Example 101, (R)-(1-(((3-cyano-5-(2-cyano-3-(diethylamino)-3-oxoprop-1-en-1-yl)phenethoxy)carbonyl)amino)-2-(p-tolyl)ethyl)boronic Acid] are 440 nM, over 5 µM and 0.6 nM.
